Paper PMC9969396, “Development of Human Carbonic Anhydrase II Heterobifunctional Degraders” (Journal of Medicinal Chemistry, 2023)

Molecular target: T1, hCAII (Homo sapiens, UniProt P00918+Q96SW2)
T1 construct: HEK293 cells, a line known to abundantly express hCAII; endogenous in cells; host or cells: HEK293
Assay: nine-point dose response hCAII degradation assay in HEK293 cells, western blot
Type: cell-based
Conditions: 24 h; for Dmax: HEK293, HEK293 cells, read-out: DMax (maximum percentage of degradation); for hook effect (attenuation of target degradation at high concentration): doses up to 15 μM
Description: Three biological replicates of HEK293 cells were dosed in parallel with 4 or 5 at concentrations ranging from 5 pM to 15 μM for 24 h prior to lysis. […] This phenomenon can be attributed to the binary complexes of degrader-POI and degrader-E3 ligase outcompeting the POI-degrader-E3 ligase ternary complex at high degrader concentrations. […] The half-maximal degradation (DC50 value reported as a 95% confidence interval) and maximum percentage of degradation (DMax) of each active degrader were determined using a least squares sigmoidal fitting of the degradation activity of dosing concentrations below the observable “hook effect” (Figure 2B).
Figure 3 Dose-dependent degradation of hCAII by 4 and 5. (A) Western blot images of HEK293 cells dosed for 24 h with degrader 4 (left) or 5 (right) at concentrations of 5 pM to 15 μM. (B) Dose response curves of hCAII abundance as a percent of DMSO vehicle for 4 (left) or 5 (right). Band intensities of blots from three biological replicates were quantified using ImageJ software (Experimental Section). Data were normalized to a vehicle-treated (DMSO) group and plotted as a sigmoidal curve. Nonlinear fitting of log([inhibitor]) vs response (three parameters) was generated for 4 with R^2 = 0.955 and 5 with R^2 = 0.855 in GraphPad Prism. Points marked with an asterisk indicate only two biological replicates. In all other cases, error bars represent the standard deviation of triplicate experiments. Full images of the western blots are provided in the Supporting Information (Figures S1 and S3).
Given the inactivity of 1–3 and increased potency of 4 over 5, a 12-atom linker appeared to be a preferred length for favorable ternary complex formation in the heterobifunctional degraders tested. To further examine the role of linker length and composition, we explored hydrocarbon linkers for their ability to improve degrader lipophilicity and membrane permeability without impacting the favorable ternary complex formation. […] Western blot analysis and quantification of three biological replicates identified the degradation of hCAII at concentrations of 11 as low as 50 pM and achieved near-complete hCAII degradation at concentrations of 5 nM (Figures 5A and S3).
After reaching 90% confluency, HEK293 cells were trypsinized, counted, and plated with 2 mL media at 2 × 10^6 cells per well on a tissue-culture-treated, 6-well plate. At the appropriate number of hours before reaching ∼90% confluency, cells were treated with DMSO solutions of the appropriate compounds (final concentration 0.5% DMSO per well). Upon reaching 90% confluency, typically 72 h, culture media were removed and the cells were washed with cold Dulbecco’s phosphate-buffered saline (DPBS). Lysis buffer, composed of cell lysis buffer (Cell Signaling Technology, 9803), protease inhibitor cocktail (Cell Signaling Technology, 5872), and 1 mM phenylmethylsulfonylfluoride, was added to each well, and the plates were rocked at 4 °C for 20 min. Cells were then scraped from the bottom of the plates, and the supernatant was collected after spinning down at 14,000g at 4 °C for 10 min and frozen at −80 °C. Lysates were thawed on ice, and the total protein concentration was measured using a Pierce bicinchoninic acid protein assay (Thermo Fisher Scientific, 23225). […] Following heating at 98 °C for 5 min and cooling to room temperature, the prepared samples were electrophoretically separated on a 4–20% TGX gel (Bio-Rad, 4568095) and transferred to a PVDF membrane (Amersham Hybond P 0.45 μm, 106000019) in a tris-glycine transfer buffer (Thermo Fisher Scientific, LC3675) with a 20% final MeOH concentration. The membrane was rocked at 4 °C with fluorescent blocking buffer (Thermo Fisher Scientific, 37565) for 1 h and then incubated with primary antibodies (hCAII Rabbit mAb, 1:1000 and β-actin Rabbit pAb, 1:2000 in fluorescent blocking buffer) at 4 °C overnight. […]

DMax (maximum percentage of degradation) (HEK293 cells)	SMILES	Dmax	concentration of maximum degradation (HEK293 cells)	DC50 (HEK293 cells, 5 pM to 15 μM, 95% confidence interval, read-out: DC50 (half-maximal degradation))	hook effect (attenuation of target degradation at high concentration) (HEK293 cells)
	NS(=O)(=O)c1ccc(C(=O)NCCCOCCCCOCCCNc2cccc3c2C(=O)N(C2CCC(=O)NC2=O)C3=O)cc1 (centres unmarked) [Compound 4, N-(3-(4-(3-((2-(2,6-Dioxopiperidin-3-yl)-1,3-dioxoisoindolin-4-yl)amino)propoxy)butoxy)propyl)-4-sulfamoylbenzamide]	96%	500 nM	5 ± 3 nM	hook effect
96%	NS(=O)(=O)c1ccc(C(=O)NCCCOCCOCCOCCCNc2cccc3c2C(=O)N(C2CCC(=O)NC2=O)C3=O)cc1 (centres unmarked) [Compound 5, N-(3-(2-(2-(3-((2-(2,6-Dioxopiperidin-3-yl)-1,3-dioxoisoindolin-4-yl)amino)propoxy)ethoxy)ethoxy)propyl)-4-sulfamoylbenzamide]	86%	5000 nM		hook effect
